# From US20150125452A1, “COMBINATION TREATMENTS COMPRISING C-MET ANTAGONISTS AND B-RAF ANTAGONISTS” (GENENTECH, INC., priority 2011, published 2015)
# Entries after “also recorded” stand apart in the source; their conditions may differ.
# Experiments:
# Format in all cases: cell-based, Human
# [1] = tested on: AKT and ERK phosphorylation; assay: Immunoblots of survival pathway re-activation
# Description: FIGS. 2A-2C: pro-survival pathway re-activation correlated with RTK ligand rescue. FIG. 2A, Immunoblots showing the effect of acute RTK ligand treatment (50 ng/mL) on AKT and ERK phosphorylation following kinase inhibition (1 μM, 2 h). RTK ligand rescue is indicated, grey squares indicates complete rescue and black squares indicates partial rescue as determined by the initial screen (FIG. 1B). […] Cells were co-treated with 50 ng/mL RTK ligand in the presence of the appropriate secondary kinase inhibitor (0.5 μM) as indicated. […] Error bars represent mean+/−s.e.m. FIG. 2C, Immunoblots showing the effect of acute kinase inhibition (1 μM) in the presence and absence of RTK ligands (50 ng/mL, 2 h) on AKT and ERK phosphorylation. Cells were co-treated with secondary kinase inhibitor (0.5 μM) as appropriate.
# Cell lysates were harvested using Nonidet-P40 lysis buffer, supplemented with Halt protease and phosphatase inhibitor cocktail (Thermo Scientific) and immunodetection of proteins was carried out using standard protocols. The phospho-HER2 (Y1248; #2247), HER2 (#2242), phospho-HER3 (Y1289; #4791), phospho-MET (Y1234/5; #3126), PDGFRα (#5241), phospho-FRS2α (Y196; #3864), IGF-1Rβ (#3027), phospho-ALK (Y1604; #3341), AKT (#9272), phospho-ERK (T202/Y204; #9101), ERK (#9102), GAPDH (#2118) and β-Tubulin (#2146) antibodies were purchased from Cell Signaling Technologies. Antibodies to HER3 (SC-285), MET (SC-10), phospho-PDGFRα (SC-12911), FRS2α (SC-8318), FGFR1 (SC-7945), FGFR2 (SC-122), FGFR3 (SC-13121) and ALK (SC-25447) were purchased from Santa Cruz Biotechnologies. Phospho-AKT (S473; #44-621G) antibody was purchased from Invitrogen. Phospho-EGFR (Y1068; ab5644) antibody was purchased from Abeam. EGFR (#610017) antibody was purchased from BD Biosciences. PARP (#14-6666-92) antibody was purchased from eBioscience. Densitometry was carried out using ImageJ software.
# [2] = tested on: H358 EGF-like ligand-driven NSCLC cells; assay: Syto 60 long-term staining with erlotinib and HGF; details: erlotinib 5 μM, HGF 50 ng/mL, every 3 days for 9 days
# Description: (§1) Cells were co-treated with 50 ng/mL HGF. Error bars represent mean+/−s.e.m. […] FIG. 8C, Syto 60 staining of H2228 EML4-ALK translocated NSCLC cells treated with TAE684 (2 μM) in the presence and absence of HGF (50 ng/mL) as indicated. Cells were treated every 3 days for 9 days. FIG. 8D, Syto 60 staining of H358 EGF-like ligand-driven NSCLC cells treated with Erlotinib (5 μM) in the presence and absence of HGF (50 ng/mL) as indicated. Cells were treated every 3 days for 9 days.
# [3] = tested on: AU565 HER2 amplified breast cancer cells; assay: Syto 60 viability and long-term staining with lapatinib and ligands
# Description: FIGS. 3A-3G: HGF promoted lapatinib resistance in HER2 amplified cell lines. […] HGF rescue is indicated, black squares indicates partial rescue as determined by the initial screen (FIG. 1B). […] Cells were treated every three days for the indicated times. […] FIG. 3D, Immunoblots showing the re-activation of pAKT and pERK in two MET positive (AU565, HCC1954) and one MET negative (BT474) HER2 amplified cell lines. […] FIG. 3E, Representative slides showing MET expression in HER2 positive (3+) breast cancer tissues. FIG. 3F, selection of higher MET expressing AU565 cells following 3× treatments with lapatinib (1 μM) and HGF (50 ng/mL). FIG. 3G. […] Cells were treated twice weekly for the indicated times.
# AU565 sells were co-treated with lapatinib (1 μM) in combination with 10 ng/mL NRG1 or FGF. […] Cells were treated with the appropriate kinase inhibitors in the presence of HGF (50 ng/mL). Cells were then treated with either 100 nM PI3K inhibitor (BEZ235) or MAPK inhibitor (AZD6244). Error bars represent mean+/−s.e.m.
# (§2) Cell viability was assessed using the nucleic acid stain Syto 60 (Invitrogen). Cells (3000-5000 per well) were seeded into 96 well plates and allowed to adhere overnight. The next day, cells were treated with (or without) 50 ng/mL RTK ligand and concomitantly exposed to an increasing concentration range of the relevant kinase inhibitor. Following 72 hours drug exposure, cells were fixed in 4% formaldehyde, stained with Syto 60 and cell number was assessed using an Odyssey scanner (Li-Cor). Cell viability was calculated by dividing the fluorescence obtained from the drug-treated cells by the fluorescence obtained from the control (no drug) treated cells.
# [4] = tested on: H2228 EML4-ALK translocated NSCLC cells; assay: Syto 60 viability and long-term staining with TAE684 and HGF
# Description: as §1
# FIG. 16: Syto 60 staining of H2228 EML4-ALK translocated NSCLC cells treated with TAE684 (2 μM) in the presence or absence of HGF (50 ng/mL) as indicated. Cells were treated every 3 days for 9 days.
# as §2
# [5] = tested on: BRAF mutant melanoma cell lines; assay: Syto 60 cell viability, HGF rescue from PLX[…]; details: additional twelve cell lines
# Description: Cells were treated twice weekly for the indicated times. […] Error bars represent mean+/−s.e.m.
# as §2, with “Following 72 hours drug exposure, cells were fixed in 4% formaldehyde, stained with Syto 60 and cell number was assessed using an Odyssey scanner (Li-Cor).” left out
# SK-MEL-28 cells = assay: Secreted factor screen, Cell Titer Glo; details: 5 μM PLX[…], 50 ng/mL factor, 72 h, 446 factors
# Description: […] […] […] Error bars represent mean+/−s.e.m.
# Following 72 h incubation, cell viability was determined using Cell Titer Glo (Promega).
# [6] = tested on: H3122 EML4-ALK translocated NSCLC cancer cell line; assay: Cell viability assay with TAE684 or crizotinib and HGF; details: TAE684, 50 ng/mL HGF, 72 h
# Description: Error bars represent mean+/−s.e.m.
# as §2, with “Following 72 hours drug exposure, cells were fixed in 4% formaldehyde, stained with Syto 60 and cell number was assessed using an Odyssey scanner (Li-Cor).” left out
substance,measurement,setting,value
HGF: recombinant human RTK ligand (MET ligand) purchased from Peprotech,PI3K/MAPK pathway re-activation by RTK ligand in presence of kinase inhibitor,"[1]; 50 ng/mL ligand, kinase inhibitor 1 μM, 2 h",re-activated both PI3K and MAPK pathways
same,re-activation of PI3K and MAPK signalling in HER2 amplified cell lines,"[1]; AU565, HCC1954 (MET positive), BT474 (MET negative), lapatinib 1 μM, HGF 50 ng/mL, 2 h","re-activated PI3K and MAPK signalling pathways specifically in MET-positive, but not in MET-negative cells"
same,persistence of redundant RTK activation and downstream survival signalling,"[1]; AU565 cells, lapatinib 1 μM and HGF 50 ng/mL",at least 48 hours
same,re-activation of AKT and ERK activity in presence of TAE684,[1]; H2228 cells,able to re-activate AKT and ERK activity
same,ERK and AKT activation in presence of TAE684,"[1]; H3122 cells, TAE684 1 μM, HGF 50 ng/mL, 2 h",promotes ERK and AKT activation
same,re-activation of MAPK signalling (pERK) in BRAF mutant cell lines,"[1]; PLX[…] 1 μM, HGF 50 ng/mL, 2 h, MET positive versus MET negative lines",could re-activate MAPK signalling in cell lines that were rescued by HGF
same,effect of HGF on longer-term erlotinib treatment,[2],rescued
same,MET expression of cell population after co-treatment,[3]; 9-day lapatinib and HGF co-treatment,increased MET expression
same,resistance to lapatinib on longer-term co-treatment,"[3]; 12 days, lapatinib 1 μM, HGF 50 ng/mL",rapidly promoted resistance to lapatinib
same,effect of HGF on longer-term TAE684 treatment,"[4]; TAE684 2 μM, HGF 50 ng/mL, every 3 days for 9 days",rescued; also recorded: prevented acquired resistance to TAE684
same,rescue from ALK inhibition by HGF at 72 hour time-point,"[4]; TAE684, HGF, 72 h",not rescued from ALK inhibition
same,number of additional BRAF mutant melanoma lines with HGF-attenuated PLX[…] sensitivity,[5],5 of the 12
same,effect of secreted factor on PLX[…] sensitivity,SK-MEL-28 cells,could attenuate PLX4032 sensitivity
same,rescue from ALK inhibition by HGF,[6],efficiently rescued from ALK inhibition
